Measured values as given in patent US12037334B2, “Inhibitors of VAP-1” (ACUCELA INC., priority 2018, dated 2024).

How the values were obtained:
Assay type in all cases: biochemical
rhMAO-B = molecular target: T1, rhMAO-B (Homo sapiens, UniProt P27338); assay: MAO Assay (modified Promega MAO-Glo), MAO-B inhibition; conditions: substrate 1 μM, 1 hour at room temperature
T1 construct: purchased Sigma
T1 sequence (P27338 1-520): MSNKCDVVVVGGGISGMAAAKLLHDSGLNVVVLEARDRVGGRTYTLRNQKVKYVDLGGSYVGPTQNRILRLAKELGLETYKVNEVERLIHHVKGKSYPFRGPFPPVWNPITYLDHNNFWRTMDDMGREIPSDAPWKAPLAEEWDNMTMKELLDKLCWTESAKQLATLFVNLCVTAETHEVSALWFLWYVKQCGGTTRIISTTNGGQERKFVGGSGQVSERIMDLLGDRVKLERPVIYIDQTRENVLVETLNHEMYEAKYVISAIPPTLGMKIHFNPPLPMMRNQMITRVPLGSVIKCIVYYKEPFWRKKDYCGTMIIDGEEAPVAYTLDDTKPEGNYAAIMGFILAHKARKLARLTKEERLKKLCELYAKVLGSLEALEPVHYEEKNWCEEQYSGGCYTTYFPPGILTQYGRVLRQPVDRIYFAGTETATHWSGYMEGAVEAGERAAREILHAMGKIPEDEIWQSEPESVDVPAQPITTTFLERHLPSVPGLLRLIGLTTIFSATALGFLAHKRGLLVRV
Protocol: (§1) The capability of compounds described herein to inhibit MAO was determined using a modified Promega MAO-Glo™ assay kit. The substrate ((4S)-4,5-dihydro-2-(6-hydroxybenzothiazolyl)-4-thiazolecarboxylic acid) was converted by MAO to produce methyl ester luciferin. The luciferin was then converted by luciferase to produce oxyluciferin and light. The light was measured using a luminescence setting on the plate reader. A standard curve was prepared by serially diluting luciferin in reaction buffer. The standard kit reaction buffer was used—100 mM HEPES (pH 7.5), 5% glycerol. The substrate was dispensed into the wells so that the final concentration for MAO-A inhibition assay would be 10 μM and MAO-B inhibition assay would be 1 μM. Inhibitors were diluted in DMSO to 4× and distributed to the appropriate wells. Clorgyline and Deprenyl served as positive controls. rhMAO-A and rhMAO-B were purchased from Sigma. MAO-A or MAO-B was added to the appropriate wells. The plate was incubated for 1 hour, at room temperature with gentle shaking (90 rpm). The detection agent was added at equal volume (48 μL detection agent to 48 μL reaction). The plate was incubated for 20 minutes, at room temperature with gentle shaking (90 rpm). The plate luminescence was read. Data processing was performed using Prism software.
(§2) The capability of compounds described herein to inhibit MAO was determined using a modified Promega MAO-Glo™ assay. Test compounds, substrate and enzyme were incubated per manufacturer instructions for lhour, at room temperature with gentle shaking (90 rpm) before addition of detection agent. The detection agent was added at equal volume (48 μL detection agent to 48 μL reaction). The plate was incubated for 20 minutes, at room temperature with gentle shaking (90 rpm). The plate luminescence was read. Data processing was performed using Prism software.

rhMAO-A = molecular target: T2, rhMAO-A (Homo sapiens, UniProt P21397); assay: MAO Assay (modified Promega MAO-Glo), MAO-A inhibition; conditions: substrate 10 μM, 1 hour at room temperature
T2 construct: purchased Sigma
T2 sequence (P21397 1-527): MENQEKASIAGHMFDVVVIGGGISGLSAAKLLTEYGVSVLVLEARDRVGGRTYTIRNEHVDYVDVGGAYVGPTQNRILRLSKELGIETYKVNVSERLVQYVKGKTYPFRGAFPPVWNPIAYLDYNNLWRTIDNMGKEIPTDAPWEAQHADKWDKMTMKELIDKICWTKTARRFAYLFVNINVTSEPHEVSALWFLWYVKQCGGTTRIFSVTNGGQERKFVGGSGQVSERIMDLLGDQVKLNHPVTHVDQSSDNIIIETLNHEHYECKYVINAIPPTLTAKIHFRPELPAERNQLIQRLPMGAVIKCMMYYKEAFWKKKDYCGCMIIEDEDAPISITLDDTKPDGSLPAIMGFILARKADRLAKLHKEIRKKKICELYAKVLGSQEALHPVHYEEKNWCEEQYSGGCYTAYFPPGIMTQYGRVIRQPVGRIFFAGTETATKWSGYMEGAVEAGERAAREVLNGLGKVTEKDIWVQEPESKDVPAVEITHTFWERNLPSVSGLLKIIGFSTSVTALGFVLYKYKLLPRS
Protocol: as §1, §2

rhVAP-1 = molecular target: T3, rhVAP-1 (Homo sapiens, UniProt Q16853); assay: VAP-1 Assay (fluorometric, Amplex Red/HRP, benzylamine substrate); conditions: rhVAP-1, benzylamine 50 μM, 30 minutes at 37° C., 10 mM NaHCO3 pH 7.4
T3 construct: purchased R&D Systems
T3 sequence (Q16853 1-763): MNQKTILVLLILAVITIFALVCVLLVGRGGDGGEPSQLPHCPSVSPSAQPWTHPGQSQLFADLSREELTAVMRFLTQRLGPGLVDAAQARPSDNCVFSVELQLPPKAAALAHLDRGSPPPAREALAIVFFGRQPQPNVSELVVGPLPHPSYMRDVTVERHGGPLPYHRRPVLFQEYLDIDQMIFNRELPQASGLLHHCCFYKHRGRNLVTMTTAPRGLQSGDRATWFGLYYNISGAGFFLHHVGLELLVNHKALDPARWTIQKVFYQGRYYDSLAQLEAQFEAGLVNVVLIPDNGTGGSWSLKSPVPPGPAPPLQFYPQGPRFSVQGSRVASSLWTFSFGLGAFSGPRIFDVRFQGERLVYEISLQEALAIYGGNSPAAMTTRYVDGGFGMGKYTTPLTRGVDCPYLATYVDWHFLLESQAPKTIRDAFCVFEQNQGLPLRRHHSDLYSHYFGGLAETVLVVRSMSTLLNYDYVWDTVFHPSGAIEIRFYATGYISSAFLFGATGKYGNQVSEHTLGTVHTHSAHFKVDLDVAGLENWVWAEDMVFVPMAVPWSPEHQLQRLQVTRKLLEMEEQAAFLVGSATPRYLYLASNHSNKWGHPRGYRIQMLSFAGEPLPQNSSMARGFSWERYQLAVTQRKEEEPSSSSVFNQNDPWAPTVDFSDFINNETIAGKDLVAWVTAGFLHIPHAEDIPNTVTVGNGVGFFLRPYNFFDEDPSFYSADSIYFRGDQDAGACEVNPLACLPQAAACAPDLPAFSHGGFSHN
Protocol: The capability of compounds described herein to inhibit the enzymatic activity of vascular adhesion protein-1 (VAP-1) was determined by fluorometric assay. The assay procedure provided by R&D Systems was modified slightly for use as an inhibitor screening assay. The assay measured the H2O2 generated from the oxidative deamination of benzylamine by rhVAP-1 by converting Amplex® Red to the fluorescent product, resorufin, via horseradish peroxidase (HRP) and H2O2. Reaction buffer was 10 mM NaHCO3, pH 7.4. A standard curve was prepared by serially diluting H2O2 in reaction buffer. A 10 μM solution of resorufin was prepared in reaction buffer and was dispensed to 2 wells. These wells served as positive control for maximum fluorescence. Reaction buffer was added to the individual wells so that the final volume in each well was 100 μL. Amplex Red was diluted to 1 mM in reaction buffer. A 10U stock of HRP was prepared in reaction buffer. A reaction cocktail was prepared by mixing equal parts 1 mM Amplex Red with 10U HRP with 3 parts reaction buffers. The reaction cocktail was added to the appropriate wells, so that that final concentration in the well was 0.05 mM Amplex Red and 0.5U HRP. A 200 μM solution of benzylamine was prepared in reaction buffer. Benzylamine was added to the appropriate wells so that the final concentration was 50 μM. Inhibitors were diluted in DMSO to 20× and distributed to the appropriate wells. UP-1207 served a positive control. rhVAP-1 was purchased from R&D Systems. The concentration used for each lot was determined so that the activity was equal to the first lot. Two wells were left blank as controls. The plate was incubated for 30 minutes at 37° C., protected from light under foil. The plate was read at 530/35 emission and 590/35 excitation. Data processing was performed using Excel and Prism software.
The capability of compounds described herein to inhibit the enzymatic activity of vascular adhesion protein-1 (VAP-1) was determined by fluorometric assay. The assay procedure provided by R&D Systems was modified slightly for use as an inhibitor screening assay. The assay measured the H2O2 generated from the oxidative deamination of benzylamine by rhVAP-1 by converting Amplex® Red to the fluorescent product, resorufin, via horseradish peroxidase (HRP) and H2O2. Amplex Red, HRP, Benzylamine, inhibitors (with DMSO as vehicle, 0.5% v/v) and rhVAP-1 were added to the wells. Assay was conducted in 10 mM NaHCO3, pH 7.4. A standard curve was prepared by serially diluting H2O2 in reaction buffer. The plate was incubated for 30 minutes at 37° C., protected from light under foil. The plate was read at 530/35 emission and 590/35 excitation. Data processing was performed using Prism software.

| IC50 (rhMAO-B) [µM] | IC50 (rhMAO-A; class symbols) [µM] | IC50 (rhVAP-1) [µM] | IC50 (rhMAO-A; cells printed as bound in μM) [µM] | SMILES |
| --- | --- | --- | --- | --- |
| 1 to 10 | 1 to 10 | < 0.1 | – | NC/C(=C/F)COc1ccc2nc(C3CCCC3)cn2c1 [Example 9, (Z)-2-(((2-cyclopentylimidazo[1,2-a]pyridin-6-yl)oxy)methyl)-3-fluoroprop-2-en-1-amine 4-methylbenzenesulfonate] |
| 1 to 10 | 10 to 30 | < 0.1 | – | CCCCc1cn2cc(OC/C(=C/F)CN)ccc2n1 [Example 1, (E)-2-(((2-butylimidazo[1,2-a]pyridin-6-yl)oxy)methyl)-3-fluoroprop-2-en-1-amine bis(4-methylbenzenesulfonate)] |
| 0.1 to 1 | – | < 0.1 | > 50 | CCCCc1cn2nc(OC/C(=C/F)CN)ccc2n1 [Example 7, (E)-2-(((2-butylimidazo[1,2-b]pyridazin-6-yl)oxy)methyl)-3-fluoroprop-2-en-1-amine 4-methylbenzenesulfonate] |
| 1 to 10 | – | < 0.1 | > 50 | CCCCc1cn2cc(OC/C(=C/F)CNC(=O)OC(C)(C)C)cnc2n1 [Example 10, tert-butyl (E)-(2-(((2-butylimidazo[1,2-a]pyrimidin-6-yl)oxy)methyl)-3-fluoroallyl)carbamate] |

The next lines start with the compound.

| SMILES | IC50 (rhMAO-B) [µM] | IC50 (rhMAO-A; class symbols) [µM] | IC50 (rhVAP-1) [µM] | IC50 (rhMAO-A; cells printed as bound in μM) [µM] |
| --- | --- | --- | --- | --- |
| CCCCc1nc2cc(OC/C(=C/F)CN)ccn2n1 [Example 3, (E)-2-(((2-butyl-[1,2,4]triazolo[1,5-a]pyridin-7-yl)oxy)methyl)-3-fluoroprop-2-en-1-amine 4-methylbenzenesulfonate] | 1 to 10 | 10 to 30 | < 0.1 | – |
| CCCCc1nc2ccc(OC/C(=C/F)CN)cn2n1 [Example 4, (E)-2-(((2-butyl-[1,2,4]triazolo[1,5-a]pyridin-6-yl)oxy)methyl)-3-fluoroprop-2-en-1-amine 4-methylbenzenesulfonate] | 0.1 to 1 | 10 to 30 | < 0.1 | – |
| CCCCc1cn2ccc(OC/C(=C/F)CN)cc2n1 [Example 2, (E)-2-(((2-butylimidazo[1,2-a]pyridin-7-yl)oxy)methyl)-3-fluoroprop-2-en-1-amine 4-methylbenzenesulfonate] | 10 to 30 | 10 to 30 | < 0.1 | – |
| CCCCc1cc2cc(OC/C(=C/F)CN)ccn2n1 [Example 8, (E)-2-(((2-butylpyrazolo[1,5-a]pyridin-5-yl)oxy)methyl)-3-fluoroprop-2-en-1-amine bis(4-methylbenzenesulfonate)] | 0.1 to 1 | 1 to 10 | < 0.1 | – |
| CCCCc1cc2ccc(OC/C(=C/F)CN)cn2n1 [Example 6] | 0.1 to 1 | 10 to 30 | < 0.1 | – |
| CCCCc1cn2cc(OC/C(=C\F)CN)ccc2n1 [Example 5, (Z)-2-(((2-butylimidazo[1,2-a]pyridin-6-yl)oxy)methyl)-3-fluoroprop-2-en-1-amine 4-methylbenzenesulfonate] | 1 to 10 | 10 to 30 | < 0.1 | – |
